PMC5983823, “Screening of Natural Product Derivatives Identifies Two Structurally Related Flavonoids as Potent Quorum Sensing Inhibitors against Gram-Negative Bacteria” (International Journal of Molecular Sciences, 2018)

Legend:
C. violaceum ATCC 31532 [1] = test: Violacein extraction assay (QS-mediated violacein production); assay type: cell-based, Chromobacterium violaceum; details: Chromobacterium violaceum, ATCC31532, 24 h, read-out: Inhibition-% of violacein production
Method: (§1) The initial screening of compound library was conducted using two strains of C. violaceum as model bacterium, and two assays (violacein extraction and resazurin staining) in parallel as recently optimized in [26]. For the screening assays, overnight cultures of C. violaceum were diluted in LB broth supplemented with yeast extract (LBY) (0.1% w/v, Sigma Aldrich, St. Louis, MO, USA). Culture of C. violaceum CV026 was further supplemented with 0.5 µM N-(β-ketocaproyl)-L-Homoserine lactone (3-O-C6-(L)-HSL, Cayman chemicals, Ann Arbor, MI, USA) to induce the violacein production. Bacteria (10^6 CFU/mL) was exposed to compounds (400 µM) in a total volume of 200 µL in 96-microtiter well plates (Nunc, Roskilde, Denmark), and incubated at 27 °C, with shaking at 200 rpm for 24 h. DMSO was added in untreated control wells and bacteria-free wells with only LBY were included controls. Additionally, autoinducer-free wells containing only bacteria were included in C. violaceum CV026 plates. Plates were prepared in duplicates. Quercetin dihydrate (Carl Roth GmbH, Karlsruhe, Germany) at 400 µM was used as positive control in violacein extraction assay, and azithromycin (Cayman chemicals, Ann Arbor, MI, USA) at 10 µM in viability assay. Both control compounds were prepared in DMSO. DMSO concentration was 2.5% throughout the experiments.
(§2) After incubation period of 24 h, plates were centrifuged (Allegra™ X-12R Benchtop centrifuge, Beckman Coulter Inc., Fullerton, CA, USA) at 3000 rpm for 10 min to precipitate the violacein. Supernatants were discarded from the wells by pipetting, and pellets were re-suspended in 200 μL of 96% ethanol by scraping and mixing followed by centrifugation (3000 rpm, 10 min). Thereafter, 100 μL of supernatants were transferred to sterile 96-microtiter well plates, and violacein was quantified by reading the optical density at 595 nm using Varioskan Flash. Inhibition of violacein production was expressed as inhibition percentages of the untreated biofilms (Equation (1)):Inhibition-% = [(untreated control OD595 − sample OD595)/(untreated control OD595 − media control OD595)] × 100%(1) in which untreated control = C. violaceum + DMSO, media control = LBY, and sample = C. violaceum treated with a compound. Later on, violacein extraction assay was also utilized for the determination of half inhibitory concentrations of the compounds.

C. violaceum CV026 = test: Violacein extraction assay (QS-mediated violacein production), mutant strain with exogenous autoinducer; assay type: cell-based, Chromobacterium violaceum; details: Chromobacterium violaceum, CV026, 24 h, read-out: Inhibition-% of violacein production
Method: as §1, §2

C. violaceum ATCC 31532 [2] = test: Violacein extraction assay (QS-mediated violacein production); assay type: cell-based; details: Chromobacterium violaceum, ATCC31532, read-out: Inhibition-% of violacein production
C. violaceum = test system: C. violaceum; set-up: method as in PMID 27626397; details: cited from earlier work
[3] = test system: Staphylococcus aureus biofilms; set-up: method as in PMID 24071942; details: cited from earlier work
cancer cell lines = test system: cancer cell lines; set-up: method as in ref 56 = [56]; 56. National Center for Biotechnology Information PubChem BioAssay Database Available online: https://pubchem.ncbi.nlm.nih.gov/bioassay/924 (accessed on 28 March 2018); details: PubChem Bioassay database ref 56; cited from earlier work

O=c1cc(-c2ccccc2)oc2cc(O)c(O)cc12 [Compound 916, 6,7-dihydroxy-2-phenylchromen-4-one]
inhibition at 400 µM (C. violaceum ATCC 31532 [1]): 102%
inhibition at 400 µM (C. violaceum CV026): 95.7%
inhibition at 40 µM (C. violaceum ATCC 31532 [2]): 35.8 ± 1.1%
Anti-QS activity class in earlier screening (C. violaceum): moderately active
Anti-biofilm activity against S. aureus [3]: preventing biofilm formation and by eradicating pre-formed biofilms
Anti-cancer activity (cancer cell lines): inhibition of cancer cell lines
